Results taken from patent publication US5599925A, “Penam derivatives” (Otsuka Kagaku Kabushiki Kaisha, priority 1991, dated 1997).
Values after ≈ are worked out from the molar mass of the structure shown.

Assays:
Test in all cases: in vitro antibacterial potency test, doubling dilution agar plate method
Type in all cases: cell-based
[1] = test system: Staphylococcus aureus, methicillin-resistant; conditions: 20 hours at 37° C., inoculum 0.005 ml of ca. 10^8 /ml, read-out: minimal inhibitory concentration (MIC)
Procedure: (§1) Using compound (1a-i), an in vitro antibacterial potency test was performed by the doubling dilution agar plate method. Each test strain was cultured in a sensitivity assay bouillon for 20 hours and 0.005 ml of the culture (viable cell count: ca. 10^8 /ml) was inoculated on a sensitivity assay agar medium containing a varying concentration of the antibacterial compound.
(§2) After 20 hours of incubation at 37° C., the minimal inhibitory concentration (MIC) was determined and expressed in units of μg/ml.

[2] = test system: Proteus vulgaris; conditions: 20 hours at 37° C., inoculum 0.005 ml of ca. 10^8 /ml, read-out: minimal inhibitory concentration (MIC)
Procedure: as §1, §2

[3] = test system: Staphylococcus aureus 209P; conditions: 20 hours at 37° C., inoculum 0.005 ml of ca. 10^8 /ml, read-out: minimal inhibitory concentration (MIC)
Procedure: as §1, §2

[4] = test system: Pseudomonas aeruginosa; conditions: 20 hours at 37° C., inoculum 0.005 ml of ca. 10^8 /ml, read-out: minimal inhibitory concentration (MIC)
Procedure: as §1, §2

[5] = test system: Escherichia coli NIHJ-JC2; conditions: NIHJJC2, 20 hours at 37° C., inoculum 0.005 ml of ca. 10^8 /ml, read-out: minimal inhibitory concentration (MIC)
Procedure: as §1, §2

[6] = test system: Serratia marcescens; conditions: 20 hours at 37° C., inoculum 0.005 ml of ca. 10^8 /ml, read-out: minimal inhibitory concentration (MIC)
Procedure: as §1, §2

- MIC [1]: 100 µg/mL (≈ 228 µM)
- MIC [2]: 0.39 µg/mL (≈ 0.889 µM)
- MIC [3]: 0.1 µg/mL (≈ 0.228 µM)
- MIC [4]: 100 µg/mL (≈ 228 µM)
- MIC [5]: 12.5 µg/mL (≈ 28.5 µM)
- MIC [6]: 12.5 µg/mL (≈ 28.5 µM)
SMILES: COC(=O)CCSCC1SC2C(NC(=O)Cc3ccccc3)C(=O)N2C1C(=O)O (stereo not drawn) [compound (1a-i)]
